The source of these data is patent US20130345418A1, “PROCESS FOR PURIFICATION OF APREPITANT” (HETERO DRUGS LIMITED, priority 2006, published 2013).

Data set [1] is described as follows: mean particle size of aprepitant. The format is physicochemical. Particulars: crystallized from ethyl acetate (Example 1).
The conditions of data set [2]: aprepitant produced by the processes described in the prior art; cited from earlier work.
The nature of data set [3]: dissolution rate of amorphous versus crystalline aprepitant. The format is physicochemical. Particulars: compared with the known crystalline aprepitant.

Like-named read-outs stand apart in the source and are kept apart here.

As to `C[C@@H](O[C@H]1OCCN(Cc2n[nH]c(=O)[nH]2)[C@H]1c1ccc(F)cc1)c1cc(C(F)(F)F)cc(C(F)(F)F)c1` [aprepitant, 5-[[(2R,3S)-2-[(1R)-1-[3,5-bis(trifluoromethyl)phenyl]ethoxy]-3-(4-fluorophenyl)-4-morpholinyl]methyl]-1,2-dihydro-3H-1,2,4-triazol-3-one], the mean particle size in data set [1] is given as 4.95 microns; in data set [2], “about 12 microns”.
As to `C[C@@H](O[C@H]1OCCN(Cc2n[nH]c(=O)[nH]2)[C@H]1c1ccc(F)cc1)c1cc(C(F)(F)F)cc(C(F)(F)F)c1` [amorphous aprepitant, 5-[[(2R,3S)-2-[(1R)-1-[3,5-bis(trifluoromethyl)phenyl]ethoxy]-3-(4-fluorophenyl)-4-morpholinyl]methyl]-1,2-dihydro-3H-1,2,4-triazol-3-one], the dissolution rate result in data set [3] is “better dissolution rate than the known crystalline aprepitant”.
